From PMC7340583, “The yeast cell wall protein Pry3 inhibits mating through highly conserved residues within the CAP domain” (Biology Open, 2020) come the findings set out here.

Positions count from the first letter of the chain named. Where two headings read alike, the source gives them in different places.

Common to all, as to assay: radioligand binding, Q-sepharose adsorption, scintillation counting
One assay deals with T1, Pry1 CAP domain (Saccharomyces cerevisiae, UniProt P47032).
T1 sequence (P47032 20-299 limits assumed): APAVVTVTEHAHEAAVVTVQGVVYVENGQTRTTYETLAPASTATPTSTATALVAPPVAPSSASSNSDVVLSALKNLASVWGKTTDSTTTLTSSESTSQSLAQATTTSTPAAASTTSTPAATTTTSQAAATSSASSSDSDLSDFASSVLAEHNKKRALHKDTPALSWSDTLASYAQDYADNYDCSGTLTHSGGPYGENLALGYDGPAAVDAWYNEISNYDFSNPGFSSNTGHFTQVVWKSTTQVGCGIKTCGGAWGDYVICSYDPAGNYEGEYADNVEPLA
An excerpt:
radioligand binding, Q-sepharose adsorption, scintillation counting on Pry1 CAP domain | Polyhistidine-tagged versions of the CAP domain of Pry1, Pry3 and mutant versions of Pry3 | The affinity of Pry3 to palmitic acid is thus similar to that of Pry1

Assay [1] addresses T2, Pry3 CAP domain (Pry3-CAP) (Saccharomyces cerevisiae, UniProt P47033).
T2 sequence (P47033 18-161): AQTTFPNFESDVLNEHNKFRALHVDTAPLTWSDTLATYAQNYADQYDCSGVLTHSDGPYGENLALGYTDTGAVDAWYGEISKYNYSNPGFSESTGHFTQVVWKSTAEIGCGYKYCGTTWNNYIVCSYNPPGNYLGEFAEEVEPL

The target in assay [2] is T3, Pry3 CAP domain (Pry3-CAP) (Saccharomyces cerevisiae, UniProt P47033, C142S).
T3 sequence (P47033 18-161 C142S): T2 sequence (P47033 18-161) with C125S
As to conditions: labelled compound; 20 mM Tris pH 7.5, 30 mM NaCl, 0.05% Triton X-100, 30°C, 1 h.

Assay [3] addresses T4, Pry3 CAP domain (Pry3-CAP) (Saccharomyces cerevisiae, UniProt P47033, P105C/A155C).
T4 sequence (P47033 18-161 P105C/A155C): T2 sequence (P47033 18-161) with P88C, A138C
As to conditions: labelled compound; 20 mM Tris pH 7.5, 30 mM NaCl, 0.05% Triton X-100, 30°C, 1 h.

The target in assay [4] is T5, Pry3 CAP domain (Pry3-CAP) (Saccharomyces cerevisiae, UniProt P47033, V117M).
T5 sequence (P47033 18-161 V117M): T2 sequence (P47033 18-161) with V100M
As to conditions: labelled compound; 20 mM Tris pH 7.5, 30 mM NaCl, 0.05% Triton X-100, 30°C, 1 h.

In the case of `CC(C)CCC[C@@H](C)[C@H]1CC[C@H]2[C@@H]3CC=C4C[C@@H](O)CC[C@]4(C)[C@H]3CC[C@]12C` [cholesterol], the Kd on Pry1 CAP domain (labelled compound, 20 mM Tris pH 7.5, 30 mM NaCl, 0.05% Triton X-100, 30°C, 1 h) came to 1.88 µM; in assay [1], 13.1 µM. Further, the “radioligand binding, Q-sepharose adsorption, scintillation counting” value in assay [2] is listed as “as present in Pry3-CAP^C142S, disrupted sterol binding in vitro”; in assay [3], “decreased sterol-binding of Pry3-CAP^P105C, A155C to background levels”.

With `CCCCCCCCCCCCCCCC(=O)O` [palmitic acid], the Kd on Pry1 CAP domain is 111 µM; in assay [1], 114 µM. Moreover, the “radioligand binding, Q-sepharose adsorption, scintillation counting” value in assay [4] is “Pry3^V117M failed to efficiently bind palmitic acid in vitro”.

What is called Kd is the concentration at which binding is half-saturated.
